System: TLR8, TLR7
Assay: TLR agonism classification (TLR8 versus TLR7 agonist)
Assay type: cell-based
Settings: classification in words; agonist of TLR8 but not TLR7 = TLR8-selective; no numeric data given
Excerpt: The TLR agonism for a particular compound may be assessed in any suitable manner. […] The assay used to assess the agonism of a compound with respect to one TLR may be the same as, or a different than, the assay used to assess the agonism of the compound with respect to another TLR.
Similarly, a compound may be identified as not acting as a TLR7 agonist (i.e., a TLR7 non-agonist) if, when used to perform an assay designed to detect TLR7-mediated biological activity, the compound fails to elicit a threshold increase in TLR7-mediated biological activity. […] An assay may or may not be performed in conjunction with the appropriate control.
Assays employing HEK293 cells transfected with an expressible TLR structural gene may use a threshold of, for example, at least a three-fold increase in a TLR-mediated biological activity (e.g., NFKB activation) when the compound is provided at a concentration of, for example, from about 1 μM to about 30 μM for identifying a compound as an agonist of the TLR transfected into the cell. However, different thresholds and/or different concentration ranges may be suitable in certain circumstances. Also, different thresholds may be appropriate for different assays.

| Structure (SMILES) | TLR agonist selectivity (TLR7/TLR8) as stated for the compound |
| --- | --- |
| CCOCc1nc2c(N)nc3c(c2n1CC(C)(C)O)CCCC3 [Compound 2, 4-amino-2-(ethoxymethyl)-α,α-dimethyl-6,7,8,9-tetrahydro-1H-imidazo[4,5-c]quinoline-1-ethanol] | TLR7/8 agonist |
| CCc1nc2c(N)nc3ccccc3c2n1CCCCNS(C)(=O)=O [Compound 3, N-[4-(4-amino-2-ethyl-1H-imidazo[4,5-c]quinolin-1-yl)butyl]methanesulfonamide] | TLR7-selective agonist |
| CC(C)Cn1cnc2c(N)nc3ccccc3c21 [Compound 4, 1-(2-methylpropyl)-1H-imidazo[4,5-c]quinolin-4-amine, reference compound] | TLR7-selective agonist |
| CCCCCCCCCCCCCCCC(=O)NCCOCCn1c(CCOC)nc2c(N)nc3ccccc3c21 [Compound 5, N-(2-{2-[4-amino-2-(2-methoxyethyl)-1H-imidazo[4,5-c]quinolin-1-yl]ethoxy}ethyl)hexadecanamide] | TLR8-selective agonist |
| CCOCc1nc2c(N)nc3ccccc3c2n1CCNS(C)(=O)=O [Compound 6, N-{2-[4-amino-2-(ethoxymethyl)-1H-imidazo[4,5-c]quinolin-1-yl]ethyl}methanesulfonamide] | TLR8-selective agonist |
